{"source": "patent US20060257861A1", "about": "(priority 2005, published 2006)", "type_in_all_cases": "biochemical", "key": {"ACE1 [1]": {"system": "ACE1"}, "ACE2": {"target": "T1, ACE2 (Mus musculus, UniProt Q8R0I0)", "T1 construct": "Kidney extract (source of ACE1 & ACE2); from tissue; host or cells: kidney extract", "T1 sequence (Q8R0I0 18-805)": "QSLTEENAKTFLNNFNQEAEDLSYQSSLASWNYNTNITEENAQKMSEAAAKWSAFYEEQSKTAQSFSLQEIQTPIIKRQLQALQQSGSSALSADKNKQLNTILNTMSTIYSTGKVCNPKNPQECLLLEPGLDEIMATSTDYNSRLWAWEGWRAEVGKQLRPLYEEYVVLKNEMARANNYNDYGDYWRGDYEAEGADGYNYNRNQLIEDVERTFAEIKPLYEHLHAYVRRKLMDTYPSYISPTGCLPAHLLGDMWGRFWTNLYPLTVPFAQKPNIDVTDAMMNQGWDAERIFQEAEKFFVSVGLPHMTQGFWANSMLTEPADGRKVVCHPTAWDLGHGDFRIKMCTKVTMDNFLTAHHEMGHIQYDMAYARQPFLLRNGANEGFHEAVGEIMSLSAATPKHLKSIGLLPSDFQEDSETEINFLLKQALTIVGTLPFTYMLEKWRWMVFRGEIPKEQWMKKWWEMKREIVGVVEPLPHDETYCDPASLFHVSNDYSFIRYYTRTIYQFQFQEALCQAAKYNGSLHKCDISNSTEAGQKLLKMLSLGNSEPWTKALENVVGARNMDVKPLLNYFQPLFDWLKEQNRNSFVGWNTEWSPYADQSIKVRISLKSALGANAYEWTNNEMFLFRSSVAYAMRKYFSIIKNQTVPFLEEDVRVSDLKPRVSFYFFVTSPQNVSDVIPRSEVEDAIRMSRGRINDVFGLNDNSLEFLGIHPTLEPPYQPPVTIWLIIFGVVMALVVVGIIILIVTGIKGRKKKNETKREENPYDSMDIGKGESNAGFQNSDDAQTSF", "assay": "SELDI-TOF-MS ACE assay, kidney extract incubated with AngI (ACE2 activity)", "conditions": "AngI + kidney extract + MLN 4760", "procedure": "FIG. 3: SELDI-TOF-MS ACE assay. Kidney extract (source of ACE1 & ACE2) were incubated with AngI A: kidney extract control; B: AngI; C: AngI+kidney extract, showing peptides generated from ACE1 & ACE2; D: AngI+kidney extract+MLN 4760 (ACE2 inhibitor)."}, "ACE1 [2]": {"system": "ACE1", "remark": "listed apart in the source"}}, "data": [{"smiles": "CC(C)C[C@H](N[C@@H](Cc1cncn1Cc1cc(Cl)cc(Cl)c1)C(=O)O)C(=O)O", "note": "[MLN 4760]", "values": [{"measurement": "effect on the formation of AngII", "setting": "ACE1 [1]", "result": "no effect"}, {"measurement": "cleavage of AngI to Ang (1-7)", "setting": "ACE2", "result": "inhibited"}, {"measurement": "AngII level", "setting": "ACE1 [2]", "result": "increased"}, {"measurement": "effect on ACE1", "setting": "ACE1 [2]", "result": "without affecting ACE1"}]}]}
